# Experimental data taken from US20240174690A1, “ANNULATED 2-AMINO-3-CYANO THIOPHENES AND DERIVATIVES FOR THE TREATMENT OF CANCER” (BOEHRINGER INGELHEIM INTERNATIONAL GMBH, priority 2021, published 2024).
# Read-outs that look alike come from different tables or passages of the source.
# Columns and labels:
# [1] = Solubility measurement (DMSO solution method), McIlvaine buffer pH 4.5 or 6.8; type: physicochemical; details: aqueous buffer, kinetic from dmso stock, DMSO stock diluted to 250 μM, 24 h shaking at ambient temperature
# Method in brief: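 Filtrate concentration by LC-UV, calibrated to a known-concentration reference dissolved completely in acetonitrile/water (1:1). Samples came from 250 µM final dilutions of DMSO stock in pH 4.5 or 6.8 McIlvaine buffer, shaken 24 h at ambient temperature, then filtered.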
# NCI-H358 cells = experiment: NCI-H358 CTG proliferation assay (120 h) (NSCLC, G12C); type: cell-based, human; details: Homo sapiens
# Method in brief: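 IC50 values derive from four-parameter nonlinear regression of CellTiter-Glo viability (RLU relative to DMSO wells) after 120 h of exposure. Cells were plated in RPMI-1640 + 10% FCS at 2000 per well (assay 1) or 200 per well (assay 2). Untreated cells were measured at compound addition as T0.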
# CYP3A4 = CYP3A4 (Homo sapiens (Human), UniProt P08684); experiment: Mechanism based inhibition of CYP3A4 assay (MBI 3A4); type: in vitro ADME; details: hydroxy-midazolam formation after 30 min vs 0 min preincubation, 25 uM, human liver microsomes
# CYP3A4, sequence (P08684 whole entry): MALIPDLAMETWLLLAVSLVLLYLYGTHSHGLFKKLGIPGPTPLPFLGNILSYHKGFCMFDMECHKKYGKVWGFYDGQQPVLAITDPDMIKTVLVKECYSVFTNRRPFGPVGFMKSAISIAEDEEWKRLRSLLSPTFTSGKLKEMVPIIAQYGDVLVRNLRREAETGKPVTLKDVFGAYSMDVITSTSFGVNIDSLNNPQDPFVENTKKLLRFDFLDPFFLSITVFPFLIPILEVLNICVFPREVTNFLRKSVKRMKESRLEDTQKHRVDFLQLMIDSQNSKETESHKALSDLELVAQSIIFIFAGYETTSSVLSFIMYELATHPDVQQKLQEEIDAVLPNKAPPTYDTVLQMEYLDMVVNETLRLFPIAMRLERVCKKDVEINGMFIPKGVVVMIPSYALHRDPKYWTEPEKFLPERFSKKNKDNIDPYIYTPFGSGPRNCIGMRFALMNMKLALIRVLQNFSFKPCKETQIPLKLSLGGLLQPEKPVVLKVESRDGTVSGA
# Experimental: After preincubation, the incubate is diluted 1:10 and the substrate midazolam is added for the main incubation (15 min). The main incubation is quenched with acetonitrile and the formation of hydroxy-midazolam is quantified via LC/MS-MS. The formation of hydroxy-midazolam from the 30 min preincubation relative to the formation from the 0 min preincubation is used as a readout. Values of less than 100% mean that the substrate midazolam is metabolized to a lower extent upon 30 min preincubation compared to 0 min preincubation. In general low effects upon 30 min preincubation are desired (corresponding to values close to 100%/not different to the values determined with water control).
# SK-CO-1 cells = experiment: SK-CO-1 CTG proliferation assay (120 h) (CRC, G12V); type: cell-based; details: Homo sapiens; SK-CO-1 cells (CRC, G12V), CTG 120 h
# Experimental: SK-CO-1 CTG Proliferation Assay (120 h) (CRC, G12V)
# SK-CO-1 cells (ATCC HTB-39) are dispensed into 384-well plates, flat and clear bottom (Greiner, PNr. 781091) at a density of 500 cells per well in 60 μL EMEM (Sigma M5650)+10% Fetal Calf Serum (HyClone, PNr.: SH30084.03) and incubated at 37° C. in a CO2 incubator overnight. The next day, compounds (10 mM stock in DMSO) are added with the ECHO acoustic liquid handler system (Beckman Coulter), including DMSO controls. Plates are incubated for 120 h, and cell viability is measured using CellTiter-Glo luminescent cell viability reagent (Promega product code G7570). Viability (stated as percent of control) is defined as relative luminescence units RLU of each well divided by the RLU of cells in DMSO controls. IC50 values are determined from viability measurements by non-linear regression using a four-parameter model.
# [2] = McIlvaine buffer pH 4.5, read-out: solubility pH 4.5
# [3] = McIlvaine buffer pH 6.8, read-out: solubility pH 6.8
# [4] = assay 2, CTG, read-out: H358 (assay 2) IC50
# [5] = assay 1, CTG, read-out: H358 (assay 1) IC50
Compound,"solubility at 24 h [1, 2] [µg/mL]","solubility at 24 h [1, 3] [µg/mL]",IC50 (NCI-H358 cells; [4]) [nM],MBI 3A4 (CYP3A4) [%],IC50 (SK-CO-1 cells) [nM],IC50 (NCI-H358 cells; [5]) [nM]
C[C@H](Oc1cc(-n2ccnc2)nc(-c2noc3c2CCC[C@@]32CCCc3sc(N)c(C#N)c32)n1)[C@@H]1C[C@@H](F)CN1C [II-120],106,< 1,190,71,126,
C[C@H](Oc1cc(N2CC[C@@H](O)C2)nc(-c2noc3c2CCC[C@@]32CCCc3sc(N)c(C#N)c32)n1)[C@@H]1CCCN1C [II-66],> 117,112,586,71,76,
C[C@H](Oc1cc(-c2ccncc2)nc(-c2noc3c2CCC[C@@]32CCCc3sc(N)c(C#N)c32)n1)[C@@H]1CCCN1C [II-78],41,3,170,48,84,
C[C@H](Oc1cc(-n2cncn2)nc(-c2noc3c2CCC[C@@]32CCCc3sc(N)c(C#N)c32)n1)[C@@H]1CCCN1C [II-70],109,94,131,64,28,
C[C@H](Oc1cc(-c2cc[nH]n2)nc(-c2noc3c2CCC[C@@]32CCCc3sc(N)c(C#N)c32)n1)[C@@H]1CCCN1C [II-71],> 112,82,209,79,18,
C[C@H](Oc1cc([C@@H]2CCOC2)nc(-c2noc3c2CCC[C@@]32CCCc3sc(N)c(C#N)c32)n1)[C@@H]1CCCN1C [II-94],> 126,> 122,20,71,19,20
C[C@H](Oc1cc(-n2ccc(-c3ccccn3)n2)nc(-c2noc3c2CCC[C@@]32CCCc3sc(N)c(C#N)c32)n1)[C@@H]1CCCN1C [II-119],< 1,< 1,42,52,37,
C[C@H](Oc1cc(-c2ccn(C[C@@H](C)O)n2)nc(-c2noc3c2CCC[C@@]32CCCc3sc(N)c(C#N)c32)n1)[C@@H]1CCCN1C [II-117],> 183,> 147,98,77,24,
C[C@H](Oc1cc(-c2ccccn2)nc(-c2noc3c2CCC[C@@]32CCCc3sc(N)c(C#N)c32)n1)[C@@H]1CCCN1C [II-85],38,3,23,52,51,
C[C@H](Oc1cc(-n2cc(-c3cccnc3)nn2)nc(-c2noc3c2CCC[C@@]32CCCc3sc(N)c(C#N)c32)n1)[C@@H]1CCCN1C [II-123],< 1,< 1,439,64,96,
C[C@H](Oc1cc(C2=CCOCC2)nc(-c2noc3c2CCC[C@@]32CCCc3sc(N)c(C#N)c32)n1)[C@@H]1CCCN1C [II-67],98,41,1040,72,60,
C[C@H](Oc1cc(N2CCC[C@@H](O)C2)nc(-c2noc3c2CCC[C@@]32CCCc3sc(N)c(C#N)c32)n1)[C@@H]1CCCN1C [II-59],> 133,> 123,337,80,67,
C[C@H](Oc1cc(N2C[C@H](C)N[C@@H](C)C2)nc(-c2onc3c2CCC[C@@]32CCCc3sc(N)c(C#N)c32)n1)[C@@H]1CCCN1C [I-6],> 147,> 144,,79,2080,809
C[C@H](Oc1cc(-c2cccc(CO)c2)nc(-c2noc3c2CCC[C@@]32CCCc3sc(N)c(C#N)c32)n1)[C@@H]1CCCN1C [II-97],40,< 1,242,76,212,
C[C@H](Oc1cc(N2CC[C@H](N(C)C)C2)nc(-c2onc3c2CCC[C@@]32CCCc3sc(N)c(C#N)c32)n1)[C@@H]1CCCN1C [I-11],> 141,112,1980,78,530,
CO[C@@H]1C[C@@H]([C@H](C)Oc2cc(-n3ccnc3)nc(-c3noc4c3CCC[C@@]43CCCc4sc(N)c(C#N)c43)n2)N(C)C1 [II-58],> 124,2,562,68,90,
C[C@H](Oc1cc(-c2cnn(C)n2)nc(-c2noc3c2CCC[C@@]32CCCc3sc(N)c(C#N)c32)n1)[C@@H]1CCCN1C [II-86],112,60,993,68,121,
C[C@H](Oc1cc(C2CCOCC2)nc(-c2noc3c2CCC[C@@]32CCCc3sc(N)c(C#N)c32)n1)[C@@H]1CCCN1C [II-76],> 122,104,507,73,120,
C[C@H](Oc1cc(-c2cncnc2)nc(-c2noc3c2CCC[C@@]32CCCc3sc(N)c(C#N)c32)n1)[C@@H]1CCCN1C [II-82],102,72,807,73,170,
C[C@H](Oc1cc(N2C[C@H](C)N[C@@H](C)C2)nc(-c2noc3c2CCC[C@@]32CCCc3sc(N)c(C#N)c32)n1)[C@@H]1CCCN1C [II-56],> 144,> 146,173,73,554,587
COC(=O)c1ccc(-c2cc(O[C@@H](C)[C@@H]3CCCN3C)nc(-c3noc4c3CCC[C@@]43CCCc4sc(N)c(C#N)c43)n2)o1 [II-114],41,< 1,123,85,64,
C[C@H](Oc1cc(-n2ccc(Br)n2)nc(-c2noc3c2CCC[C@@]32CCCc3sc(N)c(C#N)c32)n1)[C@@H]1CCCN1C [II-110],3,< 1,217,67,126,
